We go through one compound from patent US9393295B2, “Nanoparticles for use in pharmaceutical compositions” (Novartis AG, priority 2008, dated 2016).

A short description of this series: SMIP encapsulation efficiency (UPLC of pellet and supernatant). It counts as physicochemical. The conditions noted are these: RG 502H 2% w/v nanoparticles, theoretical SMIP loading 2% w/w of PLG. As to the method: Nanoparticles with a theoretical SMIP loading level of 2% w/w of PLG were prepared for the SMIP encapsulation study. Both water (pH 5.5-6) and Tris EDTA buffer (pH 7-8) were used for the aqueous phases. […] Since, a basic SMIP is being employed here, Tris EDTA buffer was used for the aqueous phase, which maintained the pH of the suspension between 7 and 8.
The encapsulation efficiency was calculated as a ratio of mass of SMIP in the nanoparticles to the mass of SMIP used in the formulation. More particularly, the nanoparticle suspension was aliquoted (1 ml) into 2 vials and centrifuged at 16000 RPM for 30 minutes. The amount of SMIP in the supernatant was determined using an ultra performance liquid chromatography (Waters Acquity UPLC, Milford, Mass., USA) assay. The pellet was washed three times and the amount of SMIP in the pellet was determined after hydrolyzing the pellet with sodium hydroxide, followed by neutralization with hydrochloric acid. Encapsulation efficiency was calculated as ratio of the SMIP in the pellet to the total SMIP content of the suspension. Mass balance was achieved by hydrolyzing 1 ml of the suspension and determining the total SMIP content in 1 ml of the suspension.

Take `CCCN(C)c1nc2c(N)nc3ccccc3c2n1CC(C)(C)O` [SMIP]: the encapsulation efficiency entry is given as “greater than 90%” (Tris EDTA buffer (pH 7-8) as aqueous phase) and 40-50% (water (pH 5.5-6) as aqueous phase).
